US8748370B2, “Peptide derivatives for treatment, prevention or alleviation of a condition associated with bone loss or low bone density or to inhibit osteoclast differentiation and stimulation” (Strongbone AB, priority 2009, dated 2014)
Square brackets hold non-standard residues; d marks the D form. Peptide text beside a SMILES is read from it. * marks the point of attachment. Agmatine = N=C(N)NCCCCN*; Cbz = O=C(OCc1ccccc1)*; azaGly = NNC(=O)O; BrAc = O=C(CBr)*; ClAc = O=C(CCl)*

T1: Cath K (Homo sapiens, UniProt P43235)
T1 sequence (P43235 115-329): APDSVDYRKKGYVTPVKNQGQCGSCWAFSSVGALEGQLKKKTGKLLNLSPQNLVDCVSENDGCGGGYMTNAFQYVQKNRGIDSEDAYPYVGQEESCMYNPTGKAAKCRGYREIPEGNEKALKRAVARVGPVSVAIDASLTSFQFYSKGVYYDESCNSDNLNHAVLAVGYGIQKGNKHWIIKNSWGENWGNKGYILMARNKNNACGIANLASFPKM

T2: Papain (Carica papaya, UniProt P00784)
T2 sequence (P00784 134-345): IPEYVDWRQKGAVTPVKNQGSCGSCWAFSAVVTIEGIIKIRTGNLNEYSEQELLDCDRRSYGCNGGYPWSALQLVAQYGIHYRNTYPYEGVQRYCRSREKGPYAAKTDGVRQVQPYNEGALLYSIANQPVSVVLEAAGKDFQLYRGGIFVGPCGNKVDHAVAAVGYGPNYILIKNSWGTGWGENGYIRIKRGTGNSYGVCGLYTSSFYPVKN


Tests used:
Cath K = target: T1, Cath K; test: Cathepsin K inhibition (Ki); assay type: biochemical
Papain = target: T2, Papain; test: Papain inhibition (Ki); assay type: biochemical
[1] = system: purified bone marrow macrophages; test: Osteoclast formation in bone marrow macrophage cultures stimulated with M-CSF and RANKL (TRAP+ multinucleated osteoclasts); assay type: cell-based; settings: for Osteoclast formation (100% = M-CSF + RANKL): purified bone marrow macrophages stimulated with M-CSF and RANKL, trap+ multinucleated osteoclasts
Description: Highly purified BMMs were isolated according to Takeshita et al. (2000).
For osteoclastogenesis experiments, BMMs were seeded either on 0.8 cm^2 glass chamber slides or 0.32 cm^2 96-well plates at a density of 10^4 cells/cm^2 in a-MEM/10% FBS containing either 100 ng/ml M-CSF (controls) or 100 ng/ml M-CSF C50 ng/ml RANKL, with and without test compounds. After 4-5 days, with a change of medium after 3 days, the cultures were harvested and the cells fixed with acetone in citrate buffer/3% formaldehyde and subsequently stained for TRAP. The TRAP-positive cells with three or more nuclei were considered osteoclasts, and the number of multinucleated osteoclasts was counted (TRAP^+-MuOCL). […] Osteoclast formation caused by M-CSF and RANKL was abolished by OPG

Cath B = Cath B (Homo sapiens, UniProt P07858); test: Cathepsin B inhibition (Ki); assay type: biochemical
spleen cells = test: Osteoclast formation in spleen cell cultures (TRAP+ multinucleated osteoclasts); assay type: cell-based, mice; settings: for Osteoclast formation in the presence of the substance: without M-CSF/RANKL stimulation
Description: Cells were obtained from spleens of 5- to 9-week-old mice. The spleens were dissected free of adhering tissues, and cells were released by rubbing the spleens against the bottom of a Petri dish, in which grooves had been made by a scalpel. Erythrocytes were lysed in red blood cell lysis buffer (0.16 MNH4Cl, 0.17 M Tris, pH7.65) and the remaining cells were seeded, at a cell density of 10^6 cells/cm2, on plastic coverslips placed in 24-well plates. The cells were cultured in 0.5 ml a-minimal essential medium (a-MEM) supplemented with 10% fetal bovine serum (FBS), L-glutamine (0.7 mM), 100 U/ml benzylpenicillin, […] and 100 […] sulphate. Cells were allowed to settle overnight in complete medium and thereafter the medium was changed and the experiment started. Osteoclast precursor cells were induced to proliferate and differentiate by the addition of M-CSF (25 ng/ml) and RANKL (100 ng/ml). To study the effect of the compounds on osteoclastogenesis, cells were grown in medium containing compounds at different concentrations, together with M-CSF and RANKL. Cells cultured in complete medium without M-CSF and RANKL were included in all experiments as a control. Medium was changed after 3 days. After 1-6 days, the cells were washed three times with PBS (pH 7.35) and fixed with acetone in citrate buffer/3% formaldehyde solution. Cells were then stained for tartrate-resistant acid phosphatase (TRAP) activity using the SigmaDiagnostics Acid Phosphatase Leukocyte staining kit and by following the manufacturer's instruction. Multinucleated (no. of nuclei >3), TRAP-positive cells were counted as osteoclasts (TRAPC-MuOCL).

Molecule	Ki (Cath K)	Ki (Papain)	Osteoclast formation (100% = M-CSF + RANKL) ([1]; BMM #27 + #29 + #30 + #34)	Ki (Cath B)	further results
CC(C)CC(NC(=O)C(NC(=O)C1OC1C(=O)c1ccccc1)C(C)C)C(=O)NCCCCNC(=N)N (single isomer, unassigned) [A-47]	99 nM	16 nM	0%	0.3 nM	
CC(C)CC(NC(=O)C(NC(=O)C1OC1C(=O)c1ccccc1)C(C)C)C(=O)NCCCCNC(=N)N (single isomer, unassigned) [A-50]	63 nM	68 nM	2%	55 nM	
CC(C)CC(NC(=O)C(NC(=O)CCl)C(C)C)C(=O)NCCCCNC(=N)N (stereo not drawn) [A-11, ClAc—Val-Leu-Agm] (ClAc-Val-Leu-Agmatine; configuration not given here)	14 nM	93 nM	1%	360 nM	
CC(C)CC(NC(=O)C(NC(=O)CBr)C(C)C)C(=O)NCCCCNC(=N)N (stereo not drawn) [A-12, BrAc—Val-Leu-Agm] (BrAc-Val-Leu-Agmatine; configuration not given here)	13 nM	94 nM	2%	1000 nM	
CC(C)C[C@H](NC(=O)[C@@H](NC(=O)[C@H](Br)Cc1ccccc1)C(C)C)C(=O)NCCCCNC(=N)N [A-16, BrPpr-Val-Leu-Agm]		340 nM	16%		Cath K Ki (Cath K): inactive; Cath B Ki (Cath B): inactive
CC(C)CC(NC(=O)C(CCCNC(=N)N)NC(=O)OCc1ccccc1)C(=O)NC(CNC(=O)/C=C/c1ccccc1)C(C)C (stereo not drawn) [A-20, Z-Arg-Leu-NH—CH(iPr)—CH2—NH←Cin]			0%		Papain Ki (Papain): Inactive
CC(C)CC(NC(=O)C(NC(=O)/C=C/S(=O)(=O)Cc1ccccc1)C(C)C)C(=O)NCCCCNC(=N)N (stereo not drawn) [A-25, Bzsa-Val-Leu-Agm]	42.2 nM		1%	8.1 nM	Papain Ki (Papain): Inactive
CC(C)CC(NC(=O)C(NC(=O)/C=C/C(=O)c1ccccc1)C(C)C)C(=O)NCCCCNC(=N)N (stereo not drawn) [A-33, Bzac-Val-Leu-Agm]	24 nM	46 nM	0%	2 nM	
COC(=O)C1OC1C(=O)NC(C(=O)NC(CC(C)C)C(=O)NCCCCNC(=N)N)C(C)C (stereo not drawn) [A-42, MeO-Eps-Val-Leu-Agm]		161 nM	0%	14 nM	Cath K Ki (Cath K): inactive
CC(C)CC(NC(=O)C(CCCNC(=N)N)NC(=O)OCc1ccccc1)C(=O)NC(CNC(=O)/C=C/c1ccncc1)C(C)C (stereo not drawn) [A-49, Z-Arg-Leu-NH—CH(iPr)—CH2—NH←4-Pac]			0.2%		
CC(C)CC(NC(=O)CCCCNC(=N)N)C(=O)NC(CNC(=O)/C=C/S(=O)(=O)Cc1ccccc1)C(C)C (stereo not drawn) [A-54]	14 nM	1000 nM	1%	228 nM	
CC(C)CC(NC(=O)C(CCCNC(=N)N)NC(=O)OCc1ccccc1)C(=O)NC(C(=O)NC(Cc1ccccc1)C(N)=O)C(C)C (stereo not drawn) [A-59, Ppa-Arg-Leu-Val-Phe-NH2] (Cbz-RLVF-NH2; configuration not given here)			0%		
CC(C)CC(NC(=O)CCCCNC(=N)N)C(=O)NC(CNC(=O)C(Cc1ccccc1)NC(=O)Cc1cc(=O)oc2cc(O)ccc12)C(C)C [A-107, (2S)-2-[N-(5-guanidinepentanoyl)-L-leucylamino]-1-[N-(7-hydroxy-4-coumarinylacetyl-L-phenylalanylamino)-3-methylbutane]					Osteoclast formation (100% = M-CSF + RANKL) ([1]; BMM #141 and #142): 0%
CC(C)CC(NC(=O)/C=C/c1cccnc1)C(=O)NC(CC(C)C)C(=O)NCCCCNC(=N)N (stereo not drawn) [A-127, 3 Pac-DLeu-Leu-Agm]					Osteoclast formation (100% = M-CSF + RANKL) ([1]; BMM #141 and #142): 16%
CC(C)CC(NC(=O)Cc1cc(=O)oc2cc(O)ccc12)C(=O)NC(CC(C)C)C(=O)NCCCCNC(=N)N [A-128, N-amidino-4-(7-hydroxy-4-coumarinacetyl-D-leucyl-L-leucylamino)butylamine]					Osteoclast formation (100% = M-CSF + RANKL) ([1]; BMM #141 and #142): 4%
C=C1/C(=C\C=C2/CCC[C@]3(C)[C@@H]([C@H](C)CCCC(C)(C)O)CC[C@@H]23)C[C@@H](O)C[C@@H]1O [D3, 1.25(OH)2-vitamin D3, reference compound]					Osteoclast formation in the presence of the substance (spleen cells): No osteoclasts were formed; Osteoclast formation in the presence of the substance ([1]; BMM cultures): Osteoclasts were not formed
CCC(C)C(NC(=O)/C=C/S(=O)(=O)Cc1ccccc1)C(=O)N1CCCC1C(=O)O (stereo not drawn) [M-1, Bzsa-Ile-Pro-OH]	160 nM	23 nM	14%	3 nM	
CCC(C)C(NC(=O)NNC(=O)C(CCCNC(=N)N)NC(=O)C(CC(C)C)NC(=O)C(CCCNC(=N)N)NC(=O)OCc1ccccc1)C(=O)NC(C(=O)OC)C(C)C (stereo not drawn) [Z-RLR, Z-Arg-Leu-Arg-Agly-Ile-Val-OMe] (Cbz-RLR[azaGly]IV-OMe; configuration not given here)	1 nM	9 nM	0%		
PTH (protein, UniProt P01270 32-115, looked up, Parathyroid hormone, PTH, used to show the lack of stromal cells in the cultures) Parathyroid hormone: SVSEIQLMHNLGKHLNSMERVEWLRKKLQDVHNFVALGAPLAPRDAGSQRPRKKEDNVLVESHEKSLGEADKADVNVLTKAKSQ					Osteoclast formation in the presence of the substance (spleen cells): No osteoclasts were formed; Osteoclast formation in the presence of the substance ([1]; BMM cultures): Osteoclasts were not formed
Cystatin C (protein, UniProt P01034 27-146, looked up) Cystatin-C: SSPGKPPRLVGGPMDASVEEEGVRRALDFAVGEYNKASNDMYHSRALQVVRARKQIVAGVNYFLDVELGRTTCTKTQPNLDNCPFHDQPHLKRKAFCSFQIYAVPWQGTMTLSKSTCQDA					Osteoclast formation (100% = M-CSF + RANKL) ([1]; BMM #141 and #142): 0%
osteoprotegerin (protein, UniProt O00300 22-401, looked up, osteoprotegerin (OPG), abolishes M-CSF/RANKL-stimulated osteoclast formation) Tumor necrosis factor …: ETFPPKYLHYDEETSHQLLCDKCPPGTYLKQHCTAKWKTVCAPCPDHYYTDSWHTSDECLYCSPVCKELQYVKQECNRTHNRVCECKEGRYLEIEFCLKHRSCPPGFGVVQAGTPERNTVCKRCPDGFFSNETSSKAPCRKHTNCSVFGLLLTQKGNATHDNICSGNSESTQKCGIDVTLCEEAFFRFAVPTKFTPNWLSVLVDNLPGTKVNAESVERIKRQHSSQEQTFQLLKLWKHQNKDQDIVKKIIQDIDLCENSVQRHIGHANLTFEQLRSLMESLPGKKVGAEDIEKTIKACKPSDQILKLLSLWRIKNGDQDTLKGLMHALKHSKTYHFPKTVTQSLKKTIRFLHSFTMYKLYQKLFLEMIGNQVQSVKISCL					Effect on stimulation of osteoclast formation caused by M-CSF and RANKL (spleen cells; M-CSF and RANKL): abolished; Effect on osteoclast formation caused by M-CSF and RANKL ([1]; BMM cultures, M-CSF and RANKL): abolished
